The results in this text go back to ChEMBL document CHEMBL1765060, “Synthesis, characterization, and biological evaluation of novel diclofenac prodrugs” (J Med Chem, 2011).

A short description of series [1]: Metabolic stability in rat plasma assessed as compound remaining after 120 mins by HPLC analysis. The conditions noted are these: read-out: Stability. Format: ADME, cell-free.
The nature of series [2]: Aqueous solubility of the compound in acetate buffer at pH 5.5 by HPLC analysis.
Series [3] can be described thus: Metabolic stability in rat liver microsomes assessed as compound remaining after 60 mins by HPLC analysis. The conditions noted are these: read-out: Stability. The series is classed as ADME, Microsome.
Series [4] is described as follows: physchem. The following applies: octanol/0.1 M citric acid buffer, pH 3.
Series [5] relates to Rattus norvegicus. Description: Gastrointestinal toxicity in Wistar rat assessed as ulcer index at 100 mg/kg, po. Format: organism-based. On the set-up: dose 100 mg/kg, route oral. The conditions noted are these: in vivo.
For series [6] the following is noted: buffer, pH 3.
Series [7] is described as follows: physchem. The conditions noted are these: octanol/0.2 M phosphate buffer, pH 7.4.
For series [8] the following is noted: buffer, pH 7.4.
Series [9] can be described thus: Metabolic stability in rat liver microsomes assessed as compound remaining after 30 mins by HPLC analysis. The series is classed as ADME, Microsome. The following applies: read-out: Stability.
The conditions of series [10]: buffer, pH 9.
The conditions of series [11]: buffer, pH 1.
Series [12] concerns Rattus norvegicus. Description: Antiinflammatory activity in Wistar rat assessed as inhibition of carrageenan-induced paw edema at 100 mg/kg, po administered 1 hr before carrageenan challenge measured after 180 mins. Format: functional. More on the design: scale not given: the % may be the effect or the level left.
Series [13] has as its system Rattus norvegicus. Description: Gastrointestinal toxicity in Wistar rat assessed as ulcer area of <1 mm diameter at 100 mg/kg, po. The series is classed as organism-based. More on the design: dose 100 mg/kg, route oral. The conditions noted are these: in vivo.
Series [14] is described as follows: Metabolic stability in rat plasma assessed as compound remaining after 60 mins by HPLC analysis. The series is classed as ADME, cell-free. The conditions noted are these: read-out: Stability.
Series [15] deals with Rattus norvegicus. Description: Gastrointestinal toxicity in Wistar rat assessed as ulcer area of 1-3 mm diameter at 100 mg/kg, po. More on the design: dose 100 mg/kg, route oral. The conditions noted are these: in vivo. The series is classed as organism-based.
In series [16] the test system is Rattus norvegicus. Description: Gastrointestinal toxicity in Wistar rat assessed as ulcer area of >3 mm diameter at 100 mg/kg, po. Format: organism-based. The following applies: in vivo. More on the design: dose 100 mg/kg, route oral.
Series [17] concerns Rattus norvegicus. Description: Gastrointestinal toxicity in Wistar rat assessed as ulcer index at 50 mg/kg, po. The series is classed as organism-based. More on the design: dose 50 mg/kg, route oral. The following applies: in vivo.
Series [18] relates to Rattus norvegicus. Description: Gastrointestinal toxicity in Wistar rat assessed as ulcer area of >3 mm diameter at 50 mg/kg, po. The series is classed as organism-based. On the set-up: dose 50 mg/kg, route oral. The conditions noted are these: in vivo.
In series [19] the test system is Rattus norvegicus. Description: Gastrointestinal toxicity in Wistar rat assessed as ulcer area of <1 mm diameter at 50 mg/kg, po. The series is classed as organism-based. On the set-up: dose 50 mg/kg, route oral. The conditions noted are these: in vivo.
Series [20] concerns Rattus norvegicus. Description: Gastrointestinal toxicity in Wistar rat assessed as ulcer area of 1-3 mm diameter at 50 mg/kg, po. More on the design: dose 50 mg/kg, route oral. Format: organism-based. The conditions noted are these: in vivo.
For series [21], the system named is Rattus norvegicus. Description: Antiinflammatory activity in Wistar rat assessed as inhibition of carrageenan-induced paw edema at 50 mg/kg, po administered 1 hr before carrageenan challenge measured after 180 mins. The series is classed as functional. On the set-up: scale not given: the % may be the effect or the level left.

As for `CC(C)(C)C(=O)OCOC(=O)Cc1ccccc1Nc1c(Cl)cccc1Cl`, in series [1], the remaining at 2 h stood at 0%. Further, the solubility result in series [2], in series [6], in series [8], in [10] and in series [11] was “BLD” each time. The remaining at 1 h in series [3] and in [14] was 0% throughout. In addition, the values for the logD in series [4] and in series [7] were 4.08 and 3.72, respectively. In addition, the UI in [5] is listed as 6. Besides, the remaining at 0.5 h in series [9] turned out to be 2.5%. The Activity in series [12] is 56.33%; in series [13], 100%.
Regarding `CC(C)OC(=O)OCOC(=O)Cc1ccccc1Nc1c(Cl)cccc1Cl`, in series [1], the remaining at 2 h is 0%. In addition, the solubility result in series [2], in series [6], in [8], in series [10] and in [11] was “BLD” each time. In addition, the remaining at 1 h in [3] was 1.2%; in series [14] it was 0%. The values for the logD in [4] and in series [7] were 3.9 and 2.46, respectively. Moreover, in [5], the UI is listed as 40. The Activity in [15] stood at 2.86%; in series [12], 40.88%; in [13], 91.4%; in series [16], 5.71%. Also, the remaining at 0.5 h in series [9] turned out to be 2.2%.
As for `CC(=O)OCCOC(=O)Cc1ccccc1Nc1c(Cl)cccc1Cl`, the remaining at 2 h in series [1] came out at 0%. In addition, the solubility entry in series [2], in series [6], in [8], in series [10] and in series [11] was “BLD” throughout. Further, the remaining at 1 h in [3] and in series [14] was 0% in each case. Further, the logD in [4] was 4.33; in [7] it was 4.57. Moreover, the UI in series [5] came to 8. Further, in series [9], the remaining at 0.5 h was determined as 0%. Also, the Activity was 47.51% in series [12] and 100% in series [13].
For the compound `O=C([O-])Cc1ccccc1Nc1c(Cl)cccc1Cl.[Na+]` [DICLOFENAC SODIUM], the remaining at 2 h in series [1] was determined as 69.4%. For the same compound, the UI in series [17] worked out at 63. The Activity in series [18] is listed as 6%; in series [19], 80%; in series [20] it was 14%; in series [21] it was 49.17%. The remaining at 1 h in series [3] was 88.8%; in series [14] it was 86.2%. For the same compound, the remaining at 0.5 h in series [9] was 84.4%.
